This is an account of results in patent publication US8304439B1, “Use of quaternary pyridinium salts as a therapeutic or preventing agent against ionizing radiation-induced damage” (priority 2007, dated 2012).

Data set [1] relates to male BALB/c mice, whole body irradiation 7.5 Gy. Kind of data set: Survival of mice during 30 days following whole body gamma irradiation, compounds given before or after irradiation (Example 2). Format: in vivo. The following applies: 7.5 Gy whole body, from day 7 before or day 7 after irradiation until day 30. The source says: (§1) The survival rate of irradiated mice treated with the compounds in comparison control was used as a measure of a radioprotective effect.
The methodology followed was as described in B Hou. Z. W. Xu, C. W. Yang, Y. Gao, S. F. Zhao, C. G. Zhang: Protective effects of inosine on mice subjected to lethal total-body ionizing irradiation. J Radiat Res 48, 57-62, 2007. In brief, six-to-eight-week old male BALB/c mice obtained from the Nofer Institute of Occupational Medicine, ? ódź, Poland were used for the experiments. Whole bodies of the animals were exposed to a single irradiation (at the Military Institute of Chemistry and Radiometry) with gamma rays from the ^60Co source at 7.2 Gy/h mean dose rate to obtain the absorbed dose of 7.5 Gy per mouse. The absorbed doses were verified using thermoluminescent dosimeters implanted subcutaneously in the middle abdominal region. All the mice were maintained under specific pathogen-free conditions. Survival of the mice was assessed during 30 days following the irradiation.
The mice were divided into irradiated control group receiving no treatment, irradiated treatment group receiving MNA, irradiated treatment group receiving DMP, and irradiated treatment group receiving MAP. Each of the treatment groups was divided into two subgroups, the first group in which the animals received the tested compounds starting from day 7 before the irradiation, and the second group in which the animals received the tested compounds starting from day 7 after the irradiation.
The compounds were given dissolved in drinking water at 100 mg/kg of body weight/24 h (DMP and MAP) and 500 mg/kg of body weight (MNA)/24 h until day 30 post irradiation.

For data set [2], the system named is mice irradiated with lethal dose of about 7.5 Gy. The experiment in a line: Survival rate of mice after whole body irradiation, MNA given before irradiation (Example 1). Format: in vivo. To be noted: whole body irradiation 7.5 Gy; 300 mg/kg per day in drinking water from the 7th day preceding irradiation, continued after; untreated group approximately 20%; FIG. 1. The method, then:
as §1
The methodology used was as described by Cheda et al., Radiation Research 2004, 161, 335 (animals and irradiation).
The survival rate of mice irradiated with lethal dose of about 7.5 Gy was tested. The treatment group received 1-methylnicotinamide chloride (MNA) in drinking water at an average dose of 300 mg/kg per day every day starting from the 7th day preceding the irradiation day. The administration was continued after irradiation. The control group received no treatment.

Data set [3] relates to murine leukemia L1210. The following applies: cited from earlier work; for cytotoxicity in cultured leukemia cells: comparison among the three salts.
Setting [4] is: 100 mg/kg/24 h in drinking water, FIG. 3, FIG. 4.

Molecules are shown by their SMILES.

In the case of `Cc1cc[n+](C)cc1.[Cl-]` [DMP, 1,4-dimethylpyridinium chloride], in data set [1] (setting [4]), the “protective activity (survival of mice)” value was “exert their protective activity both when administered prior irradiation and when administered after irradiation”.

As for `C[n+]1cccc(C(N)=O)c1` [MNA, 1-methylnicotinamide chloride], in data set [2], the “survival rate of mice” value was “about 50%”. Further, in data set [1] (500 mg/kg/24 h in drinking water, FIG. 2), the “protective activity (survival of mice)” value was “exert their protective activity both when administered prior irradiation and when administered after irradiation”. Besides, in data set [3] (L1210 cells), the “concentration at which activity was observed” value was “observed only at very high concentration”. Moreover, the “cytotoxicity in cultured leukemia cells” value in data set [3] is reported as “several thousands times lower”.

For `CC(=O)c1ccc[n+](C)c1.[Cl-]` [MAP, 1-methyl-3-acetylpyridinium chloride], in data set [1] (setting [4]), the “protective activity (survival of mice)” value is “exert their protective activity both when administered prior irradiation and when administered after irradiation”. In addition, the “cytotoxicity in cultured leukemia cells” value in data set [3] is given as “several thousands times lower”.

As to `C[n+]1cccc([N+](=O)[O-])c1.[Cl-]` [3-nitro-1-methylpyridinium chloride, 1-methyl-3-nitropyridinium chloride, reference compound], the “cytotoxicity in cultured leukemia cells” value in data set [3] is listed as “highest cytotoxicity”.
